Test results taken from ChEMBL document CHEMBL3832050, “DailyMed|setid=da574350-be6b-49f3-b2ef-64da06af9b9d | PAMDRONATE DISODIUM - pamodronate disodium injection, solution|GENERAMEDIX, INC”.

How the values were obtained:
[1] = tested on: Homo sapiens; assay: (§1) Mean pharmacokinetic parameters for Pamidronate after intravenous infusion of 30, 60 and 90 mg of Pamidronate disodium for 4 hours and 90 mg for 24 hours in cancer patients, 6 in each group.; type: ADME, organism-based; design: dose 90 mg, dose 30 mg, dose 60 mg, route iv; conditions: in vivo, iv, dosed compound id 8, dosed compound name PAMIDRONATE DISODIUM, gender male and female, regimen Single dose; for Excretion: tissue Urine
[2] = as §1; type: ADME, organism-based; design: dose 90 mg, dose 30 mg, dose 60 mg, route iv; conditions: human, in vivo, dosed compound id 8, dosed compound name PAMIDRONATE DISODIUM, gender male and female, regimen Single dose, route iv, study dosing duration 4 hours
[3] = dose 60 mg, study dosing duration 4 hours, tissue Plasma
[4] = dose 90 mg, study dosing duration 4 hours, tissue Plasma
[5] = dose 90 mg, study dosing duration 24 hours, tissue Plasma

NCCC(O)(P(=O)([O-])O)P(=O)([O-])O.[Na+].[Na+]
Excretion ([1]; at 60 mg, study dosing duration 4 hours): 47.4% | Excretion ([1]; at 90 mg, study dosing duration 4 hours): 45.3% | Excretion ([1]; at 90 mg, study dosing duration 24 hours): 47.5% | CL [1, 3]: 88 mL/min | CL_renal [1, 3]: 42 mL/min | CL [1, 4]: 103 mL/min | CL_renal [1, 4]: 44 mL/min | CL [1, 5]: 101 mL/min | CL_renal [1, 5]: 52 mL/min | Cmax ([1]; study dosing duration 24 hours, tissue Plasma): 1.38 µg/mL | dose excreted ([2]; iv, at 30 mg, tissue Urine, read-out: Excretion): 43.9% | clearance ([2]; dose 30 mg, tissue Plasma): 136 mL/min | CL renal ([2]; dose 30 mg, tissue Plasma, read-out: CL_renal): 58 mL/min
